The text below walks through data of patent publication US20260315567A1, “POLYMERIC LEUPROLIDE ACETATE FORMULATIONS” (Tolmar International Limited, priority 2023, published 2026).

Data set [1] is described as follows: LA gelation studies of drug solutions (e-beam irradiated, 60 °C with agitation, inversion test). The format is physicochemical. The settings on record: 150 rpm, up to 16 days, leuprolide acetate content. The protocol: Drug solutions were prepared as described above and filled into syringes or glass vials. Syringes were untreated, contained various amounts of silicone, or were plasma coated for lubrication. Samples were irradiated by e-beam irradiation at not less than 25 kGy and stored at accelerated conditions of 60° C. with agitation at 150 rpm for up to 16 days. Samples were inspected periodically to determine if the drug solution remained a solution or had formed a solid/gel by an inversion test. Samples that had “gelled” were transferred to 5° C. for subsequent testing.
The gelation rate for each sample was calculated as Rate=1/(simulated 5° C. age at time of gelation in days). The Arrhenius equation was used to determine the simulated age, assuming standard reaction rate doubling for every 10° C. increase in temperature. […] Data was analyzed using JMP. […] Container type and lubrication were not significant.
Samples were tested for leuprolide content by HPLC. Leuprolide content was then converted to leuprolide acetate by multiplying by 1.078 (based on molecular mass ratios). A marked difference in leuprolide acetate content between the gelled and non-gelled samples was seen, with the tipping point between solution and solid/gelled samples occurring at about 45% LA.

Data set [2] is described as follows: Solubility of LA in organic solvent. The format is physicochemical. The note with it: in NMP or DMSO. The text has this: To produce the drug/solvent bulk solution comprising the API (LA), the desired amount of the LA was combined with the solvent NMP or DMSO or combination of solvents with or without a co-solvent or other additives, in the indicated amounts (see individual experiments below). The API and solvent were combined in a glass vial or jar. Jars were mixed using the jar mill, Turbula, or shaker at room temperature until homogeneous. LA is soluble in NMP or DMSO and can load higher concentrations (at least 40% w/w). After dissolving the API in the organic solvent, the bulk solution was manually filled into syringes and capped with a tip cap. The syringes used for filling were either 1.2 mL male polypropylene syringes, 1.2 mL male cyclic olefin copolymer syringes or 1 mL male cyclic olefin copolymer syringes. Filled syringes were then packaged in labeled foil pouches with a Syringe A (polymer-solvent solution) and a desiccant pack and the pouches were sealed. After filling the syringes with the formulations, they were terminally sterilized with an external radiation dose of 30 kGy from e-beam processing. After terminal sterilization, the syringes were stored under refrigerated conditions (e.g., 2-8° C.) or accelerated conditions (>25° C. see individual experiments).

Regarding `CCNC(=O)[C@@H]1CCCN1C(=O)[C@H](CCCNC(=N)N)NC(=O)[C@H](CC(C)C)NC(=O)[C@@H](CC(C)C)NC(=O)[C@H](Cc1ccc(O)cc1)NC(=O)[C@H](CO)NC(=O)[C@H](Cc1c[nH]c2ccccc12)NC(=O)[C@H](Cc1c[nH]cn1)NC(=O)[C@@H]1CCC(=O)N1` [LA, leuprolide acetate], the “tipping point between solution and solid/gelled samples” value in data set [1] is reported as “about 45 % LA”. Further, the “solubility (loading)” value in data set [2] is given as “at least 40 % w/w”.
